Marks after values point to notes of the source that are not given here.
Key:
[1] = system: Hydrochloric acid-Ethanol-Induced Ulcers; experiment: Hydrochloric acid-Ethanol-Induced Ulcers; assay type: in vivo, male Wister rats; conditions: Rattus norvegicus, intraduodenal, 3 h, Table 1; dose 20 mg/kg intraduodenally three hours before hydrochloric acid - 60% ethanol; read-out: Inhibition ratio(%)
Outline: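 Male Wistar rats (~200 g, n=6), fasted 24 h, received oral 150 mM HCl–60% ethanol (0.5 ml/100 g). Compound in PEG/0.5% CMC emulsion was given intraduodenally 1 or 3 h before. Fundic ulcer length scored 1 h after challenge; inhibition ratio calculated versus the non-administered group.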

Aspirin-Induced Ulcers = experiment: Aspirin-Induced Ulcers; assay type: in vivo, male Wister rats; conditions: Rattus norvegicus, 9 h, 5 minutes before 150 mg/kg of aspirin orally, read-out: Aspirin, inhibiting ratio; for inhibition in vivo at 50 mg/kg: dose 50 mg/kg intraduodenally at pylorus ligation
Procedure: (§1) Experiments on Hydrochloric acid-Ethanol-Induced Ulcers, Aspirin-Induced Ulcers, Water-Immersion stress-Induced Ulcers, Shay's Ulcers and Serotonin-Induced Ulcers were carried out using male Wister rats weighing about 200g in groups of six. Experiments on Ischemia-Reperfusion -Induced Gastric Lesions were carried out using male SD rats weighing about 250g in groups of six. Other than for the tests on Ischemia-Reperfusion-Induced Gastric Lesions Models, the test compounds were prepared by mixing thoroughly with polyethyleneglycol and 0.5% sodium carboxymethyl cellulose solution and emulsifying vigorously. Activities against respective ulcer models were evaluated by an inhibiting ratio obtained by dividing the difference between the ulceration indexes of the non-administered group and the test compound group by the non-administered group.
In each rat which had been fasted for 24 hours, the pyloric end of the stomach was ligated, and simultaneously the test compound was administered intraduodenally, and after 5 minutes, 150 mg/kg of aspirin was administered orally, respectively. After 9 hours from ligation, each rat was slaughtered, a length of ulcer formed at the fundus gland area of stomach was measured and ulceration index was calculated based on the length.
(§2) The results of Aspirin-Induced Ulcers, Water-immersion stress-Induced Ulcers, Shay's Ulcers, Serotonin-induced Ulcers and Ischemia-Reperfusion-Induced Gastric lesions are shown in Table 3.

[2] = system: Water-Immersion stress-Induced Ulcers; experiment: Water-Immersion stress-Induced Ulcers; assay type: in vivo, male Wister rats; conditions: Rattus norvegicus, po, 10 h, read-out: Water-Immersion Stress, inhibiting ratio; for inhibition in vivo at 20 mg/kg: dose 20 mg/kg orally 10 minutes before the exposure to stress
Procedure: as §1
Each rat which had been fasted for 15 hours was immobilized in a stress cage and immersed to chest depth in a water bath at 21°C. Each rat was slaughtered after 10 hours, a length of ulcer formed at the fundus gland area of stomach was measured and ulceration index was calculated based on the length. The test compound was administered orally 10 minutes before the exposure to stress.
as §2

Shay's Ulcers = experiment: Shay's Ulcers; assay type: in vivo, male Wister rats; conditions: Rattus norvegicus, intraduodenal, 14 h; dose 50 mg/kg intraduodenally immediately after the ligation; read-out: Shay, inhibiting ratio
Procedure: as §1
In each rat which had been fasted for 48 hours, the pyloric end of stomach was ligated, and each was kept without giving any food or water for 14 hours. Each rat was then slaughtered, and area of ulcer formed in the forestomach was measured and ulceration inded was calculated based on the area. The test compound was administered intraduodenally immediately after the ligation.
as §2

Serotonin-Induced Ulcers = experiment: Serotonin-Induced Ulcers; assay type: in vivo, male Wister rats; conditions: Rattus norvegicus, 4.5 h; dose 20 mg/kg intraduodenally 30 minutes before Serotonin creatinine sulfate 30 mg/kg subcutaneously; read-out: Serotonin, inhibiting ratio
Procedure: as §1
To each rat which had been fasted for 24 hours, 30 mg/kg of a solution of serotonin creatinine sulfate in a saline solution was administered subcutaneously. Each rat was then slaughtered after 4 and a half hours and area of gastric mucosal lesion formed facing the center line of greater curvature of the corpus ventriculi of stomach was measured and ulceration index was calculated based on the area. The test compound was administered intraduodenally 30 minutes before the administration of the Serotonin creatinine sulfate.
as §2

[3] = system: Ischemia-Reperfusion-Induced Gastric Lesions; experiment: Ischemia-Reperfusion-Induced Gastric Lesions; assay type: in vivo, male SD rats; conditions: dose 40 mg/kg in dimethylsulfoxide from the caudal artery 30 minutes before beginning collection of the blood
Procedure: as §1
Each rat which had been fasted for 24 hours was anesthetized intraperitoneally with Nembutal and immobilized on a constant temperature pad in a dorsal position. After tracheotomy was performed, blood pressure was measured via a transducer for blood pressure from a cannula inserted in right carotid. The abdomen was opened, and the gastroesophageal junction was ligated. A tube was then passed through the duodenostomy into the stomach and the gastric lumen was lavaged with warm saline. 1 ml of 0.1N hydrochloric acid per 100g body weight was instilled into the stomach via the gastric tube and the pylorus was ligated. When the blood pressure became stable, 2% of weight (w/w) of the blood was collected from a cannula inserted in the left carotid into a syringe containing a heparin added saline solution. After 20 minutes, the collecting blood was retransfused and each rat was left to stand for 20 minutes, and slaughtered and the area of gastric mucosal lesions was measured and ulceration index was calculated based on the area. The test compound was dissolved in dimethylsulfoxide and administered at a dose of 40 mg/kg from the caudal artery 30 minutes before beginning collection of the blood.
as §2

SMILES | inhibition in vivo at 20 mg/kg [1] | inhibition in vivo at 50 mg/kg (Aspirin-Induced Ulcers) | inhibition in vivo at 20 mg/kg [2] | inhibition in vivo at 50 mg/kg (Shay's Ulcers) | inhibition in vivo at 20 mg/kg (Serotonin-Induced Ulcers) | Ischemia-Reperfusion, inhibiting ratio [3] | inhibition in vivo at 20 mg/kg (Aspirin-Induced Ulcers; dose 20 mg/kg intraduodenally at pylorus ligation) | inhibition in vivo at 50 mg/kg ([2]; dose 50 mg/kg orally 10 minutes before the exposure to stress)
CC1=CC(OC(=O)c2ccc(N)cc2)C(O)C(C)(C)CC1=O (stereo not drawn) [AU215, 4-(4-aminobenzoyloxy)-5-hydroxy-2,6,6-trimethyl-2-cyclohepten-1-one] | 56% | 66% | 45% | 73% | 81% | 90(40)** | – | –
CC1=CC(OC(=O)c2ccc([N+](=O)[O-])cc2)C(O)C(C)(C)CC1=O (stereo not drawn) [AU212, 5-hydroxy-4-(4-nitrobenzoyloxy)-2,6,6-trimethyl-2-cyclohepten-1-one] | 90% | – | 48% | 75% | 71% | 63(40)** | 46% | –
COC12CC(C)(C)C(O1)C(OC(=O)c1ccc(N)cc1)C=C2C (stereo not drawn) [AU245, 4-(4-aminobenzoyloxy)-1-methoxy-2,6,6-trimethyl-8-oxabicyclo [3.2.1] oct-2-ene] | 58% | 63% | 38% | 35% | 38% | 93(40)** | – | –
COC1C=C(C)C(=O)CC(C)(C)C1OC(=O)c1ccc(N)cc1N (stereo not drawn) [AU408, 5-(2,4-diaminobenzoyloxy)-4-methoxy-2,6,6-trimethyl-2-cyclohepten-1-one] | 58% | 73% | – | 43% | 44% | 75(40)** | – | 56%

From patent EP0528699B1, “Saishin N derivatives, process for their preparation and anti-ulcer agents containing them” (TOKYO TANABE COMPANY LIMITED, priority 1991, dated 1993)
